Test results from patent US9695193B2, “Inhibitors of Plasmodium falciparum equilibrative nucleoside transporter type I as anti-parasitic compounds” (The Trustees of Columbia University in the City of New York, priority 2013, dated 2017).

Target: T1, PfENT1 (Plasmodium falciparum, UniProt Q8IDM6)
T1 construct: expressed in transfected cells; host or cells: fui1Δ yeast (Saccharomyces cerevisiae), co-expressing GFP
Format: cell-based
Settings: primary HTS, compounds at 10 μM, 125 μM 5-FUrd
Protocol: A yeast-based high throughput screening (HTS) assay was used to identify compounds that inhibit PfENT1. The compounds described in this application were identified by screening four commercially available, chemical compound libraries obtained from Dr. Donald Landry's laboratory (Department of Medicine, Columbia University). These libraries contain approximately 80,000 unique chemical entities.
In the primary screen the compounds were tested at a concentration of 10 μM. Hits were identified by the growth of fui1Δ yeast expressing PfENT1 and Green Fluorescent Protein (GFP) in the presence of the cytotoxic nucleoside 5-fluorouridine (5-FUrd). 5-FUrd is transported by PfENT1. PfENT1 expressing fui1Δ yeast will only grow in the presence of 125 μM 5-FUrd if a PfENT1 inhibitor blocks the uptake of 5-FUrd into the yeast. Significant yeast growth in the HTS in 384 well plates was determined by two criteria: 1) turbidity as determined by the optical density at 620 nm (OD620) and 2) GFP fluorescence intensity. […] Hits had to be positive by both criteria.

T1 sequence (Q8IDM6 whole entry): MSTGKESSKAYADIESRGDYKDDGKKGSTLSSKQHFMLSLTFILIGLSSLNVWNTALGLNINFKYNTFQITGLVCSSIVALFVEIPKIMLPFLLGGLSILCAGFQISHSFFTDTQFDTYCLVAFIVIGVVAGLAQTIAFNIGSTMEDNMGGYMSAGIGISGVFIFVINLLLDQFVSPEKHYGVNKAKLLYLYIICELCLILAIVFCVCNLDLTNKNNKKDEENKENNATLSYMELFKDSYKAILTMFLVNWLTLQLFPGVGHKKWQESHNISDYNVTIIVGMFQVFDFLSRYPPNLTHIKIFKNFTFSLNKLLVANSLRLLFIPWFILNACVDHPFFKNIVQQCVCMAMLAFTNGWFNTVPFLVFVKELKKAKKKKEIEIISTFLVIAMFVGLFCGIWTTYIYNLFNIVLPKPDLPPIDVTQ

Cc1cc(-c2ccccc2)nc(SCc2nc3ccccc3c(=O)[nH]2)n1 [compound 141, 2-{[(4-methyl-6-phenyl-2-pyrimidinyl)thio]methyl}-4(3H)-quinazolinone]
Avg Normalized % maximal activity: 3.21%

CCc1nnc(NC(=O)c2sc3nc(C)cc(COC)c3c2N)s1 [compound 108, 3-amino-N-(5-ethyl-1,3,4-thiadiazol-2-yl)-4-(methoxymethyl)-6-methylthieno [2,3-b]pyridine-2-carboxamide]
Avg Normalized % maximal activity: 4.66%

COc1c(C)cccc1C(=O)Nc1cc(-c2nc3ncccc3o2)ccc1C [compound 122, 2-methoxy-3-methyl-N-(2-methyl-5-[1,3]oxazolo[4,5-b]pyridin-2-ylphenyl)benzamide]
Avg Normalized % maximal activity: 4.13%

COc1ccc(-c2cnc3ccccc3n2)cc1NC(=O)c1ccco1 [compound 54, N-[2-methoxy-5-(2-quinoxalinyl)phenyl]-2-furamide]
Avg Normalized % maximal activity: 7.83%

Cc1cc(-c2nc3ncccc3o2)ccc1NC(=O)c1ccco1 [compound 41, N-(2-methyl-4-[1,3]oxazolo[4,5-b]pyridin-2-ylphenyl)-2-furamide]
Avg Normalized % maximal activity: 10.28%

CCOc1cc(-c2noc(CCCC(=O)N3CCCCC3)n2)ccc1OC [compound 64, 1-{4-[3-(3-ethoxy-4-methoxyphenyl)-1,2,4-oxadiazol-5-yl]butanoyl}piperidine]
Avg Normalized % maximal activity: 7.14%

CCOCc1nnc(NC(=O)c2ccc(OC)cc2)s1 [compound 47]
Avg Normalized % maximal activity: 8.66%

Cc1ccc(C(=O)Nc2ccc(C(=O)N3CCCCC3)cc2)cc1 [compound 86, 4-methyl-N-[4-(1-piperidinylcarbonyl)phenyl]benzamide]
Avg Normalized % maximal activity: 5.63%

O=C(Nc1cccc(NC(=O)c2ccco2)c1)c1cccc(Br)c1 [compound 76, N-{3-[(3-bromobenzoyl)amino]phenyl}-2-furamide]
Avg Normalized % maximal activity: 6.23%

CC(=O)[C@H]1CC[C@H]2[C@@H]3C[C@H](C)C4=CC(=O)CC[C@]4(C)[C@H]3[C@@H](O)C[C@]12C [compound 121]
Avg Normalized % maximal activity: 4.13%

Cc1ccc2c(Cl)c(C(=O)Nc3cccnc3)sc2c1 [compound 60, 3-chloro-6-methyl-N-3-pyridinyl-1-benzothiophene-2-carboxamide]
Avg Normalized % maximal activity: 7.53%

O=C(Nc1cc(-c2nc3ccccc3[nH]2)ccc1Cl)c1ccco1 [compound 103, N-[5-(1H-benzimidazol-2-yl)-2-chlorophenyl]-2-furamide]
Avg Normalized % maximal activity: 4.74%

Cc1cc(C)cc(C(=O)Nc2cccc(NC(=O)c3ccco3)c2)c1 [compound 75, N-{3-[(3,5-dimethylbenzoyl)amino]phenyl}-2-furamide]
Avg Normalized % maximal activity: 6.27%

COc1cccc(C(CC(=O)O)S(C)(=O)=O)c1 (stereo not shown) [compound 159]
Avg Normalized % maximal activity: 2.12%

C#C[C@]1(O)CC[C@H]2[C@@H]3CCC4=C(CCC(=O)C4)[C@H]3CC[C@@]21C [compound 74]
Avg Normalized % maximal activity: 6.35%

Cc1cccc(N2C(=O)CC(NC3CCCC3)C2=O)c1 (stereo not shown) [compound 104, 3-(cyclopentylamino)-1-(3-methylphenyl)-2,5-pyrrolidinedione]
Avg Normalized % maximal activity: 4.72%

CCOc1ccc2c(C)cc(=O)oc2c1C [compound 140, 7-ethoxy-4,8-dimethyl-2H-chromen-2-one]
Avg Normalized % maximal activity: 3.21%

CC(=O)Nc1ccc(NC(=O)CSc2nc3ccccc3s2)cc1 [compound 168, N-[4-(acetylamino)phenyl]-2-(1,3-benzothiazol-2-ylthio)acetamide]
Avg Normalized % maximal activity: 1.93%

CCc1ccc(C(C)NC(=O)c2nc[nH]n2)cc1 (stereo not shown) [compound 48, N-[1-(4-ethylphenyl)ethyl]-1H-1,2,4-triazole-3-carboxamide]
Avg Normalized % maximal activity: 8.44%

CN1CCN(S(=O)(=O)c2ccc(C(=O)Nc3ccccc3)cc2)CC1 [compound 155, 4-[(4-methyl-1-piperazinyl)sulfonyl]-N-phenylbenzamide]
Avg Normalized % maximal activity: 2.20%

Cc1cccn2c(=O)c3cc(C(=O)NC4CCCC4)sc3nc12 [compound 55, N-cyclopentyl-9-methyl-4-oxo-4H-pyrido[1,2-a]thieno[2,3-d] pyrimidine-2-carboxamide]
Avg Normalized % maximal activity: 7.75%

CSc1ccccc1C(=O)Nc1nc(=O)c2ccccc2[nH]1 [compound 90, 2-(methylthio)-N-(4-oxo-1,4-dihydro-2-quinazolinyl)benzamide]
Avg Normalized % maximal activity: 5.22%

COc1ccccc1CN1CCN(Cc2ccccn2)CC1 [compound 69, 1-(2-methoxybenzyl)-4-(2-pyridinylmethyl) piperazine]
Avg Normalized % maximal activity: 6.74%

CC1CCc2sc3ncnc(N4CCN(C(=O)c5ccco5)CC4)c3c2C1 (stereo not shown) [compound 21, 4-[4-(2-furoyl)-1-piperazinyl]-6-methyl-5,6,7,8-tetrahydro[1] benzothieno[2,3-d]pyrimidine]
Avg Normalized % maximal activity: 17.70%

CCOC(=O)c1ccc(NC(=O)c2nc(SC)ncc2Cl)cc1 [compound 91, ethyl 4-({[5-chloro-2-(methylthio)-4-pyrimidinyl]carbonyl}amino)benzoate]
Avg Normalized % maximal activity: 5.19%

CCSc1nnc(NC(=O)c2cccc(OC)c2)s1 [compound 113, N-[5-(ethylthio)-1,3,4-thiadiazol-2-yl]-3-methoxybenzamide]
Avg Normalized % maximal activity: 4.39%

CCOC(=O)c1cc(NC(=O)c2ccco2)ccc1N1CCOCC1 [compound 51, ethyl 5-(2-furoylamino)-2-morpholin-4-ylbenzoate]
Avg Normalized % maximal activity: 8.11%

O=C(CSc1nnc(-c2ccc(Cl)cc2Cl)o1)N1CCCCC1 [compound 45, 1-({[5-(2,4-dichlorophenyl)-1,3,4-oxadiazol-2-yl]thio}acetyl)piperidine]
Avg Normalized % maximal activity: 8.97%

O=C(Nc1cccnc1)c1cc2cc(C3CC3)cc(C(F)(F)F)n2n1 [compound 100]
Avg Normalized % maximal activity: 4.83%

CCOC(=O)CSc1nnc2c3ccccc3n(CC)c2n1 [compound 161]
Avg Normalized % maximal activity: 2.08%

CC[S+](CC)c1c([O-])[nH]c(=O)n(Cc2ccc(F)cc2)c1=O [compound 131, 5-(diethylsulfonio)-1-(4-fluorobenzyl)-2,6-dioxo-1,2,3,6-tetrahydro-4-pyrimidinolate]
Avg Normalized % maximal activity: 3.65%

COc1ccc(-c2nnc(SCc3csc(C)n3)o2)cc1OC [compound 142, 2-(3,4-dimethoxyphenyl)-5-{[(2-methyl-1,3-thiazol-4-yl)methyl]thio}-1,3,4-oxadiazole]
Avg Normalized % maximal activity: 3.09%

COc1ccc(-c2nnc(OC)c3ccccc23)cc1 [compound 29, 1-methoxy-4-(4-methoxyphenyl) phthalazine]
Avg Normalized % maximal activity: 13.58%

COc1cc(C(=O)Nc2ccc(C(=O)c3cccs3)cc2)cc(OC)c1OC [compound 138, 3,4,5-trimethoxy-N-[4-(2-thienylcarbonyl)phenyl]benzamide]
Avg Normalized % maximal activity: 3.31%

CCOC(=O)c1ccc(NC(=O)c2nn(CC)cc2Br)cc1 [compound 79, ethyl 4-{[(4-bromo-1-ethyl-1H-pyrazol-3-yl)carbonyl]amino}benzoate]
Avg Normalized % maximal activity: 6.01%

COc1ccc(NC(=O)COc2ccc3ccc(=O)oc3c2)cc1 [compound 78, N-(4-methoxyphenyl)-2-[(2-oxo-2H-chromen-7-yl)oxy]acetamide]
Avg Normalized % maximal activity: 6.16%

CCC(=O)c1ccc(/C=C/c2nc3ccccc3n2C)o1 [compound 66, 1-{5-[2-(1-methyl-1H-benzimidazol-2-yl)vinyl]-2-furyl}-1-propanone]
Avg Normalized % maximal activity: 7.04%

Cc1ccnc(NC(=O)c2ccc(NC(=O)c3ccco3)cc2)c1 [compound 14, N-(4-{[(4-methyl-2-pyridinyl)amino]carbonyl}phenyl)-2-furamide]
Avg Normalized % maximal activity: 24.47%

COc1ccc(NC(=O)C2(c3ccccc3)CCCC2)cc1 [compound 126, N-(4-methoxyphenyl)-1-phenylcyclopentane-carboxamide]
Avg Normalized % maximal activity: 3.87%

O=C(O)c1ccc(S(=O)(=O)N(Cl)Cl)cc1 [compound 151]
Avg Normalized % maximal activity: 2.60%

C1CCN2C[C@@H]3C[C@@H](CN4CCCC[C@@H]34)[C@H]2C1.O=S(=O)(O)O [compound 81]
Avg Normalized % maximal activity: 5.81%

COCc1cc(C)nc2sc(C(=O)Nc3ccc(NC(C)=O)cc3)c(N)c12 [compound 162, N-[4-(acetylamino)phenyl]-3-amino-4-(methoxymethyl)-6-methylthieno [2,3-b]pyridine-2-carboxamide]
Avg Normalized % maximal activity: 2.04%

CCN(CC)C(=O)COc1ccc2c(c1)oc(=O)c1cc(OC)ccc12 [compound 17, N,N-diethyl-2-[(8-methoxy-6-oxo-6H-benzo [c]chromen-3-yl)oxy]acetamide]
Avg Normalized % maximal activity: 22.15%

O=C(Nc1ccc(-c2nc3ccccc3o2)cc1)C1CCCO1 (stereo not shown) [compound 49, N-[4-(1,3-benzoxazol-2-yl)phenyl]tetrahydro-2-furancarboxamide]
Avg Normalized % maximal activity: 8.36%

Br.Cc1ccnc(Nc2nc(-c3cccnc3)cs2)c1 [compound 146, 4-methyl-N-[4-(3-pyridinyl)-1,3-thiazol-2-yl]-2-pyridinamine hydrobromide]
Avg Normalized % maximal activity: 2.97%

O=[N+]([O-])c1ccc(C2Nc3c(F)cccc3C3C=CCC32)cc1 (stereo not shown) [compound 164, 6-fluoro-4-(4-nitrophenyl)-3a,4,5,9b-tetrahydro-3H-cyclopenta[c]quinoline]
Avg Normalized % maximal activity: 2.01%
